According to patent US20070128217A1 (priority 2003, published 2007):

Columns and labels:
[1] = system: antibodies in sera from SARS patients (sera 1a, 1b, 2, 6, 37, 62, London, SARS-yellow, SARS-green); assay type: binding, human; set-up: Binding of serum 6 to linear peptides of protein X1 of SARS-CoV Urbani / Binding of serum 37 to linear peptides of protein X1 of SARS-CoV Urbani / Binding of serum 6 to looped/cyclic peptide (PEPSCAN-ELISA) / Binding of serum 37 to looped/cyclic peptide (PEPSCAN-ELISA) / Binding of serum 37 to looped/cyclic peptides of protein X1 of SARS-CoV Urbani / Binding of serum 6 to linear peptides of protein X2 / Binding of serum 37 to linear peptides of protein X2 / Binding of serum 37 to looped/cyclic peptides of protein X2 of SARS-CoV Urbani / Binding of serum 6 to linear peptides of protein M of SARS-CoV Urbani / Binding of serum 37 to linear peptides of protein M of SARS-CoV Urbani / Binding of serum 6 to looped/cyclic peptides of protein M of SARS-CoV Urbani / Binding of serum 37 to looped/cyclic peptides of protein M of SARS-CoV Urbani / Binding of serum 6 to linear peptides of protein X3 of SARS-CoV Urbani / Binding of serum 37 to linear peptides of protein X3 of SARS-CoV Urbani / Binding of serum 37 to looped/cyclic peptides of protein X3 of SARS-CoV Urbani / Binding of serum 6 to linear peptides of protein X4 of SARS-CoV Urbani / Binding of serum 37 to linear peptides of protein X4 of SARS-CoV Urbani / Binding of serum 37 to looped/cyclic peptides of protein X4 of SARS-CoV Urbani / Binding of serum 6 to linear peptides of protein X5 of SARS-CoV Urbani / Binding of serum 37 to linear peptides of protein X5 of SARS-CoV Urbani / Binding of serum 37 to looped/cyclic peptides of protein X5 of SARS-CoV Urbani / Binding of serum 6 to linear peptides of protein N of SARS-CoV Urbani / Binding of serum 37 to linear peptides of protein N of SARS-CoV Urbani / Binding of serum 6 to linear peptide (PEPSCAN-ELISA) / Binding of serum 1a to looped/cyclic peptides of protein N of SARS-CoV Urbani / Binding of serum 1b to looped/cyclic peptides of protein N of SARS-CoV Urbani / Binding of serum 2 to looped/cyclic peptides of protein N of SARS-CoV Urbani / Binding of serum 6 to looped/cyclic peptides of protein N of SARS-CoV Urbani / Binding of serum 37 to looped/cyclic peptides of protein N of SARS-CoV Urbani / Binding of serum 62 to looped/cyclic peptides of protein N of SARS-CoV Urbani / Binding of serum London to looped/cyclic peptides of protein N of SARS-CoV Urbani / Binding of serum SARS-green to looped/cyclic peptides of protein N of SARS-CoV Urbani: unit not given here
[2] = system: control sera (pooled serum of ten healthy LUMC hospital workers; commercial negative donor pooled serum from the Dutch bloodbank); assay type: binding, human; set-up: Binding of Control serum LUMC to linear peptides / Binding of Control serum Blood-bank to linear peptides / Binding of Control serum LUMC to looped peptides / Binding of Control Serum Blood-Bank to Looped peptides / Binding of Control serum LUMC to linear peptides of the protein M of SARS-CoV Urbani / Binding of Control serum Blood-bank to linear peptides of the protein M of SARS-CoV Urbani / Binding of Control serum LUMC to looped peptides of the protein M of SARS-CoV Urbani / Binding of Control Serum Blood-Bank to Looped peptides of the protein M of SARS-CoV Urbani: unit not given here
[3] = system: rabbit serum obtained by immunizing a rabbit with the SARS-CoV strain Frankfurt 1; assay type: binding; set-up: Binding of a rabbit serum to linear peptides / Binding of a rabbit serum to looped peptides / Rabbit serum linear peptides / Rabbit serum looped peptides / Binding of a rabbit serum to linear peptides of protein N of SARS-CoV Urbani (Rabbit serum linear peptides) / Binding of a rabbit serum to looped/cyclic peptides of protein N of SARS-CoV Urbani (Rabbit serum looped peptides): unit not given here

## LVAAGMEAQFLYLYA
[1]
  Binding of serum 1a to linear peptides of protein X1 of SARS-CoV Urbani: 0.8
  Binding of serum 1a to looped/cyclic peptide (PEPSCAN-ELISA): 0.5
  Binding of serum 1b to linear peptides of protein X1 of SARS-CoV Urbani: 0.7
  Binding of serum 1b to looped/cyclic peptide (PEPSCAN-ELISA): 0.4
  Binding of serum 2 to linear peptides of protein X1 of SARS-CoV Urbani: 0.6
  Binding of serum 2 to looped/cyclic peptide (PEPSCAN-ELISA): 0.5
  Binding of serum 6 to linear peptides of protein X1 of SARS-CoV Urbani: 0.4
  Binding of serum 6 to looped/cyclic peptide (PEPSCAN-ELISA): 0.3
  Binding of serum 37 to linear peptides of protein X1 of SARS-CoV Urbani: 0.6
  Binding of serum 37 to looped/cyclic peptide (PEPSCAN-ELISA): 0.5
  Binding of serum 62 to linear peptides of protein X1 of SARS-CoV Urbani: 0.5
  Binding of serum 62 to looped/cyclic peptide (PEPSCAN-ELISA): 0.5
  Binding of serum London to linear peptides of protein X1 of SARS-CoV Urbani: 0.2
  Binding of serum London to looped/cyclic peptide (PEPSCAN-ELISA): 0.2
  Binding of serum SARS-green to linear peptides of protein X1 of SARS-CoV Urbani: 0.2
  Binding of serum SARS-green to looped/cyclic peptide (PEPSCAN-ELISA): 0.3
  Binding of serum SARS-yellow to linear peptides of protein X1 of SARS-CoV Urbani: 0.3
  Binding of serum SARS-yellow to looped/cyclic peptide (PEPSCAN-ELISA): 0.6
[2]
  Binding of Control Serum Blood-Bank to Looped peptides: 0.5
  Binding of Control serum Blood-bank to linear peptides: 0.4
  Binding of Control serum LUMC to linear peptides: 1.1
  Binding of Control serum LUMC to looped peptides: 0.6
[3]
  Binding of a rabbit serum to linear peptides: 0.1
  Binding of a rabbit serum to looped peptides: 0.6

## HLVDFQVTIAEILII
[1]
  Binding of serum 1a to linear peptides of protein X3 of SARS-CoV Urbani: 0.8
  Binding of serum 1a to looped/cyclic peptides of protein X3 of SARS-CoV Urbani: 0.7
  Binding of serum 1b to linear peptides of protein X3 of SARS-CoV Urbani: 0.6
  Binding of serum 1b to looped/cyclic peptides of protein X3 of SARS-CoV Urbani: 0.4
  Binding of serum 2 to linear peptides of protein X3 of SARS-CoV Urbani: 0.7
  Binding of serum 2 to looped/cyclic peptides of protein X3 of SARS-CoV Urbani: 0.6
  Binding of serum 6 to linear peptides of protein X3 of SARS-CoV Urbani: 0.5
  Binding of serum 6 to looped/cyclic peptides of protein X3 of SARS-CoV Urbani: 0.4
  Binding of serum 37 to linear peptides of protein X3 of SARS-CoV Urbani: 0.7
  Binding of serum 37 to looped/cyclic peptides of protein X3 of SARS-CoV Urbani: 0.6
  Binding of serum 62 to linear peptides of protein X3 of SARS-CoV Urbani: 0.6
  Binding of serum 62 to looped/cyclic peptides of protein X3 of SARS-CoV Urbani: 0.7
  Binding of serum London to linear peptides of protein X3 of SARS-CoV Urbani: 0.6
  Binding of serum London to looped/cyclic peptides of protein X3 of SARS-CoV Urbani: 0.2
  Binding of serum SARS-green to linear peptides of protein X3 of SARS-CoV Urbani: 0.4
  Binding of serum SARS-green to looped/cyclic peptides of protein X3 of SARS-CoV Urbani: 0.2
  Binding of serum SARS-yellow to linear peptides of protein X3 of SARS-CoV Urbani: 0.5
  Binding of serum SARS-yellow to looped/cyclic peptides of protein X3 of SARS-CoV Urbani: 0.7
[2]
  Binding of Control Serum Blood-Bank to Looped peptides of the protein X3 of SARS-CoV Urbani: 0.9
  Binding of Control serum Blood-bank to linear peptides of the protein X3 of SARS-CoV Urbani: 0.8
  Binding of Control serum LUMC to linear peptides of the protein X3 of SARS-CoV Urbani: 0.7
  Binding of Control serum LUMC to looped peptides of the protein X3 of SARS-CoV Urbani: 0.7
[3]
  Rabbit serum linear peptides: 0.3
  Rabbit serum looped peptides: 0.3

## KYTQSTALQELLIQQ
[1]
  Binding of serum 1a to linear peptides of protein X2: 0.7
  Binding of serum 1a to looped/cyclic peptides of protein X2 of SARS-CoV Urbani: 0.8
  Binding of serum 1b to linear peptides of protein X2: 0.6
  Binding of serum 1b to looped/cyclic peptides of protein X2 of SARS-CoV Urbani: 1.0
  Binding of serum 2 to linear peptides of protein X2: 0.4
  Binding of serum 2 to looped/cyclic peptides of protein X2 of SARS-CoV Urbani: 0.7
  Binding of serum 6 to linear peptides of protein X2: 0.5
  Binding of serum 6 to looped/cyclic peptides of protein X2 of SARS-CoV Urbani: 0.7
  Binding of serum 37 to linear peptides of protein X2: 0.6
  Binding of serum 37 to looped/cyclic peptides of protein X2 of SARS-CoV Urbani: 0.8
  Binding of serum 62 to linear peptides of protein X2: 0.6
  Binding of serum 62 to looped/cyclic peptides of protein X2 of SARS-CoV Urbani: 1.0
  Binding of serum London to linear peptides of protein X2: 0.5
  Binding of serum London to looped/cyclic peptides of protein X2 of SARS-CoV Urbani: 0.5
  Binding of serum SARS-green to linear peptides of protein X2: 0.6
  Binding of serum SARS-green to looped/cyclic peptides of protein X2 of SARS-CoV Urbani: 0.9
  Binding of serum SARS-yellow to linear peptides of protein X2: 0.6
  Binding of serum SARS-yellow to looped/cyclic peptides of protein X2 of SARS-CoV Urbani: 0.8
[2]
  Binding of Control Serum Blood-Bank to Looped peptides: 0.9
  Binding of Control serum Blood-bank to linear peptides: 0.6
  Binding of Control serum LUMC to linear peptides: 0.5
  Binding of Control serum LUMC to looped peptides: 1.0
[3]
  Binding of a rabbit serum to linear peptides: 0.4
  Binding of a rabbit serum to looped peptides: 0.4

## LFVTIYSHLLLVAAG
[1]
  Binding of serum 1a to linear peptides of protein X1 of SARS-CoV Urbani: 0.7
  Binding of serum 1a to looped/cyclic peptide (PEPSCAN-ELISA): 0.5
  Binding of serum 1b to linear peptides of protein X1 of SARS-CoV Urbani: 0.4
  Binding of serum 1b to looped/cyclic peptide (PEPSCAN-ELISA): 0.3
  Binding of serum 2 to linear peptides of protein X1 of SARS-CoV Urbani: 0.6
  Binding of serum 2 to looped/cyclic peptide (PEPSCAN-ELISA): 0.4
  Binding of serum 6 to linear peptides of protein X1 of SARS-CoV Urbani: 0.3
  Binding of serum 6 to looped/cyclic peptide (PEPSCAN-ELISA): 0.2
  Binding of serum 37 to linear peptides of protein X1 of SARS-CoV Urbani: 0.6
  Binding of serum 37 to looped/cyclic peptide (PEPSCAN-ELISA): 0.5
  Binding of serum 62 to linear peptides of protein X1 of SARS-CoV Urbani: 0.5
  Binding of serum 62 to looped/cyclic peptide (PEPSCAN-ELISA): 0.5
  Binding of serum London to linear peptides of protein X1 of SARS-CoV Urbani: 0.2
  Binding of serum London to looped/cyclic peptide (PEPSCAN-ELISA): 0.2
  Binding of serum SARS-green to linear peptides of protein X1 of SARS-CoV Urbani: 0.2
  Binding of serum SARS-green to looped/cyclic peptide (PEPSCAN-ELISA): 0.3
  Binding of serum SARS-yellow to linear peptides of protein X1 of SARS-CoV Urbani: 0.5
  Binding of serum SARS-yellow to looped/cyclic peptide (PEPSCAN-ELISA): 0.4
[2]
  Binding of Control Serum Blood-Bank to Looped peptides: 0.6
  Binding of Control serum Blood-bank to linear peptides: 0.5
  Binding of Control serum LUMC to linear peptides: 0.4
  Binding of Control serum LUMC to looped peptides: 0.6
[3]
  Binding of a rabbit serum to linear peptides: 0.1
  Binding of a rabbit serum to looped peptides: 0.6

## MEAQFLYLYALIYFL
[1]
  Binding of serum 1a to linear peptides of protein X1 of SARS-CoV Urbani: 0.7
  Binding of serum 1a to looped/cyclic peptide (PEPSCAN-ELISA): 0.5
  Binding of serum 1b to linear peptides of protein X1 of SARS-CoV Urbani: 0.6
  Binding of serum 1b to looped/cyclic peptide (PEPSCAN-ELISA): 0.3
  Binding of serum 2 to linear peptides of protein X1 of SARS-CoV Urbani: 0.5
  Binding of serum 2 to looped/cyclic peptide (PEPSCAN-ELISA): 0.4
  Binding of serum 6 to linear peptides of protein X1 of SARS-CoV Urbani: 0.4
  Binding of serum 6 to looped/cyclic peptide (PEPSCAN-ELISA): 0.2
  Binding of serum 37 to linear peptides of protein X1 of SARS-CoV Urbani: 0.5
  Binding of serum 37 to looped/cyclic peptide (PEPSCAN-ELISA): 0.8
  Binding of serum 62 to linear peptides of protein X1 of SARS-CoV Urbani: 0.4
  Binding of serum 62 to looped/cyclic peptide (PEPSCAN-ELISA): 0.5
  Binding of serum London to linear peptides of protein X1 of SARS-CoV Urbani: 0.2
  Binding of serum London to looped/cyclic peptide (PEPSCAN-ELISA): 0.2
  Binding of serum SARS-green to linear peptides of protein X1 of SARS-CoV Urbani: 0.0
  Binding of serum SARS-green to looped/cyclic peptide (PEPSCAN-ELISA): 0.2
  Binding of serum SARS-yellow to linear peptides of protein X1 of SARS-CoV Urbani: 0.2
  Binding of serum SARS-yellow to looped/cyclic peptide (PEPSCAN-ELISA): 0.4
[2]
  Binding of Control Serum Blood-Bank to Looped peptides: 0.4
  Binding of Control serum Blood-bank to linear peptides: 0.2
  Binding of Control serum LUMC to linear peptides: 0.5
  Binding of Control serum LUMC to looped peptides: 0.5
[3]
  Binding of a rabbit serum to linear peptides: 0.1
  Binding of a rabbit serum to looped peptides: 0.5
